Results reported in patent US7423068B2, “Control of parasitic mites of honey bees” (The United States of America as represented by the …, priority 2001, dated 2008).
Marks after values point to notes of the source that are not given here.

What was measured:
[1] = test system: Varroa mites; experiment: Bulls eye petri dish bioassay for attractiveness; type: in vivo, Varroa jacobsoni; settings: for % of Varroa at distance from Target Source 2.5 cm / % of Varroa at distance from Target Source 3.8 cm / % of Varroa at distance from Target Source 6.3 cm / % of Varroa in Target / % of Varroa at distance from Target Source 1.3 cm / % of Varroa at distance from Target Source 5.1 cm: 0.04 g of 30% 2-heptanone acrylic block
Protocol: A third bioassay to test for attractiveness of 2-heptanone to Varroa was conducted in petri dishes with a diameter of 13.97 cm and a volume of 76.64 cm^3. The dishes were prepared as described previously in the first bioassay of this Example using 20% gel formulation of 2-heptanone. However, the petri dishes for this bioassay were modified by drilling a hole 1.6 cm in diameter into the center of the dish. This hole was large enough to fit a 1.5 mL Eppendorf® tube which would serve as the dispenser for the 2-heptanone. The lid of each petri dish was labeled in a “bulls eye” fashion with concentric circles at 1.27 cm increments from the center where the Eppendorf® tube was located. The maximum distance from the center was 6.35 cm. The Eppendorf® tube is considered the target. In the treatment dishes, 0.04 g of 2-heptanone in acrylic block formulation (30% concentration) was placed in the Eppendorf® tube and covered with a small amount of sterile cotton. Control dishes were prepared in the same manner as the treatment dishes but the Eppendorf® tubes contained only cotton. Mites (4-5 per dish) were placed in each dish in the area furthest from the center where the Eppendorf® tube was located.
After the dishes were prepared a square section of mosquito netting large enough to cover the top of the petri dish was placed over the dish and secured with a rubber band. The mosquito netting was used instead of a lid on the dish. The mesh of the netting was wide enough to allow the 2-heptanone to volatilize, but prevented the mites from escaping. The marked lids were placed on top of the dishes every 30 minutes to document mite movement. After the measurements were made, the lids were immediately removed.
A fourth test of attractiveness was conducted in the petri dishes that were prepared as described above. In this test 0.06 g of 2-heptanone (30% concentration in acrylic block delivery system) was placed in the center target of the treatment plates. Control plates contained an empty Eppendorf® tube. The mites were placed 3.17 cm from the target. The mites could move closer or farther away from the target. Two treatment and two Control plates with 5 mites each were observed.

[2] = test system: free-running adult mites
Protocol: 2-Heptanone was tested for miticidal activity in two separate sets of bioassays. In the petri dish bioassays we exposed free-running adult mites to volatiles from 2-heptanone either in pure form or in an acrylic block dispenser (as described in a further experiment, below) and measured mortality over time. Mites were placed in petri dishes (5-10 mites/dish, 4 dishes per treatment and 4 dishes for controls) that were lined on the bottom with damp tissue paper covered with Parafilm®. Holes were punched in the Parafilm® using an insect pin to create a humid environment in the petri dish. A piece of filter paper the same size as the petri dish was placed on top of the Parafilm® sheet. In the first petri dish bioassay, 40 μl of pure 2-heptanone was placed on a piece of filter paper on the lid of the petri dish (treatment dishes). The Control dishes were set up as described above but nothing was added to the piece of filter paper fastened to the lid of the petri dish. The petri dishes were placed in separate incubators for treatments and Controls. Incubator temperatures were maintained at 33-34.4° C. […] In the second bioassay 0.1 g of a 30% concentration of 2-heptanone in acrylic block made as in Example 6 was placed in a plastic weighing boat in the center of petri dishes prepared as described above. Control petri dishes were prepared identically to those containing the acrylic block, but the weighing boat in the center of the dish was empty.
In another series of tests, 2-heptanone, 98+% (Sigrma-Aldrich); 3-heptanone (Fluka Chemika); 4-heptanone (Fluka Chemika); 2-hexanone; 2-octanone, 98% (Aldrich Chemical Co.); 1-heptanol (Fluka Chemika, 99.5% GC), and heptaldehyde, 95% (Aldrich Chemical Co.) were tested in petri dish bioassays wherein free-running adult mites were exposed to 40 μl of pure compound placed on filter paper as described above. The test conditions and Controls were as described above.
The test conditions and Controls were as described above.

[3] = exposure 1 hr, significantly different from Control

CCCCCC(C)=O [2-Heptanone]
% of Varroa at distance from Target Source 2.5 cm ([1]; exposure 1 hr): 7.5% | % of Varroa at distance from Target Source 3.8 cm ([1]; exposure 1 hr): 25.0% | % of Varroa at distance from Target Source 6.3 cm ([1]; exposure 1 hr): 17.5% | % of Varroa in Target ([1]; exposure 1 hr): 0% | % of Varroa at distance from Target Source 1.3 cm [1, 3]: 27.5* % | % of Varroa at distance from Target Source 5.1 cm [1, 3]: 16.2* % | % of Varroa at distance from Target Source 1.3 cm ([1]; exposure 2 hrs): 32.5% | % of Varroa at distance from Target Source 2.5 cm ([1]; exposure 2 hrs): 20.0% | % of Varroa at distance from Target Source 3.8 cm ([1]; exposure 2 hrs): 12.5% | % of Varroa at distance from Target Source 5.1 cm ([1]; exposure 2 hrs): 15.0% | % of Varroa at distance from Target Source 6.3 cm ([1]; exposure 2 hrs): 10.0% | % of Varroa in Target ([1]; exposure 2 hrs): 7.5% | % of Varroa at distance from Target Source 1.3 cm ([1]; exposure 3 hrs): 45.6% | % of Varroa at distance from Target Source 2.5 cm ([1]; exposure 3 hrs): 10.6% | % of Varroa at distance from Target Source 3.8 cm ([1]; exposure 3 hrs): 22.5% | % of Varroa at distance from Target Source 5.1 cm ([1]; exposure 3 hrs): 12.5% | % of Varroa at distance from Target Source 6.3 cm ([1]; exposure 3 hrs): 7.5% | % of Varroa in Target ([1]; exposure 3 hrs): 3.1% | % of Varroa at distance from Target Source 1.3 cm ([1]; exposure 4 hrs): 42.2% | % of Varroa at distance from Target Source 2.5 cm ([1]; exposure 4 hrs): 13.3% | % of Varroa at distance from Target Source 3.8 cm ([1]; exposure 4 hrs): 20.0% | % of Varroa at distance from Target Source 5.1 cm ([1]; exposure 4 hrs): 18.8% | % of Varroa at distance from Target Source 6.3 cm ([1]; exposure 4 hrs): 5.5% | % of Varroa in Target ([1]; exposure 4 hrs): 0% | % of mites that moved into the target ([1]; fourth test, 0.06 g of 30% 2-heptanone acrylic block, 4 hr. observation, Controls 0.0%): 9.1% | % of mites that moved within 1.27 cm of the target ([1]; fourth test, 0.06 g of 30% 2-heptanone acrylic block, mites placed 3.17 cm from target, 4 hr. observation, Controls 6.2%): 38.4% | % of the mites dead ([2]; 0.1 g of 30% 2-heptanone in acrylic block, 4 hrs., controls 6%): 90% | time until all the mites were dead ([2]; 40 μl pure 2-heptanone on filter paper, 33-34.4° C., controls 0% mortality): less than 2 hrs.
